{"source": "BindingDB's records for doi:10.1021/jm00107a048", "about": "(Roche Research Center, 1991)"}
{"target": "Platelet-activating factor receptor (Canis lupus familiaris)", "assay": "PAF-antagonist activity determined in dog platelets by PAF-binding assay", "units": {"IC50": "nM"}}
{"smiles": "Cc1nnc2n1-c1sc(C#CCn3c4c(c5cc(Cl)ccc53)CCCC4)cc1C(c1ccccc1Cl)=NC2", "IC50": 90}
{"smiles": "Cc1nnc2n1-c1sc(C#CCn3c4ccccc4c4ccccc43)cc1C(c1ccccc1Cl)=NC2", "IC50": 120}
{"smiles": "Cc1nnc2n1-c1sc(C#CCN3C(=O)c4cccc5cccc3c45)cc1C(c1ccccc1Cl)=NC2", "IC50": 5}
{"smiles": "Cc1nnc2n1-c1sc(C#CCn3c(=O)n(-c4ccccc4)c4ccccc43)cc1C(c1ccccc1Cl)=NC2", "IC50": 1}
{"smiles": "Cc1nnc2n1-c1sc(C#CCn3c(=O)c4ccccc4c4ccccc43)cc1C(c1ccccc1Cl)NC2=O", "note": "(stereo not given)", "IC50": 560}
{"smiles": "Cc1nnc2n1-c1sc(C#CCn3c(=O)c4ccccc4c4ccccc43)cc1C(c1ccccc1Cl)=NC2C", "note": "(stereo not given)", "IC50": 250}
{"smiles": "Cc1nnc2n1-c1ccc(C#CCN3C(=O)c4ccccc4C3=O)cc1C(c1ccccc1F)=NC2", "IC50": 10}
{"smiles": "C=C=Cn1c(=O)n(CC#Cc2cc3c(s2)-n2c(C)nnc2CN=C3c2ccccc2Cl)c2ccccc21", "IC50": 6}
{"smiles": "Cc1nnc2n1-c1sc(C#CCN3C(=O)c4cccc5cccc(c45)C3=O)cc1C(c1ccccc1Cl)=NC2", "IC50": 12}
{"smiles": "Cc1nnc2n1-c1sc(C#CCN3C(=O)CCc4ccc(Cl)cc43)cc1C(c1ccccc1Cl)=NC2", "IC50": 7}
{"smiles": "Cc1nnc2n1-c1ccc(I)cc1C(c1ccccc1F)NC2", "note": "(stereo not given)", "IC50": 1000}
{"smiles": "Cc1nnc2n1-c1sc(C#CCN3C(=O)CCc4ccccc43)cc1C(c1ccccc1Cl)=NC2", "IC50": 0.2}
{"smiles": "Cc1nnc2n1-c1sc(C#CCn3c(=O)n(C)c(=O)c4ccccc43)cc1C(c1ccccc1Cl)=NC2", "IC50": 0.6}
{"smiles": "Cc1nnc2n1-c1sc(C#CCn3c4c(c5ccccc53)CCCC4)cc1C(c1ccccc1Cl)=NC2", "IC50": 7}
{"smiles": "Cc1nnc2n1-c1sc(C#CCOc3cccnc3)cc1C(c1ccccc1Cl)=NC2", "IC50": 4}
{"smiles": "Cc1nnc2n1-c1sc(C#CCN3C(=O)NCc4ccccc43)cc1C(c1ccccc1Cl)=NC2", "IC50": 6}
{"smiles": "Cc1nnc2n1-c1ccc(C#CCN3C(=O)CCc4ccccc43)cc1C(c1ccccc1F)=N[C@H]2C", "IC50": 6}
{"smiles": "Cc1nnc2n1-c1sc(C#CCn3c(=O)c4ccccc4c4ccccc43)cc1C(c1ccccc1Cl)=NC2O", "note": "(stereo not given)", "IC50": 25}
{"smiles": "Cc1nnc2n1-c1sc(C#CCN3C(=O)C(=O)c4ccccc43)cc1C(c1ccccc1Cl)=NC2", "IC50": 7}
{"smiles": "Cc1nnc2n1-c1sc(C#CCn3c(=O)c4ccccc4c4ccccc4c3=O)cc1C(c1ccccc1Cl)=NC2", "IC50": 51}
{"smiles": "Cc1nnc2n1-c1sc(C#CCN3C(=O)COc4ccc(Cl)cc43)cc1C(c1ccccc1Cl)=NC2", "IC50": 5}
{"smiles": "O=C1CCc2ccccc2N1CC#Cc1ccc2c(c1)C(c1ccccc1F)=NCc1nnc(C(F)(F)F)n1-2", "IC50": 200}
{"smiles": "Cc1nnc2n1-c1sc(C#CCN3C(=O)COc4ccccc43)cc1C(c1ccccc1Cl)=NC2", "IC50": 0.7}
{"smiles": "Cc1nnc2n1-c1sc(C#CCn3c4c(c5cc(Cl)ccc53)CCCCC4)cc1C(c1ccccc1Cl)=NC2", "IC50": 70}
{"smiles": "Cc1nnc2n1-c1sc(C#CCn3c(=O)c4ccccc4c4ccccc43)cc1C(c1cc(O)ccc1Cl)=NC2", "IC50": 15}
{"smiles": "Cc1nnc2n1-c1sc(C#CCn3c(=O)n(C)c4ccccc43)cc1C(c1ccccc1Cl)=NC2", "IC50": 0.3}
{"smiles": "O=c1c2ccccc2c2ccccc2n1CC#Cc1cc2c(s1)-n1c(CO)nnc1CN=C2c1ccccc1Cl", "IC50": 75}
{"smiles": "Cc1nnc2n1-c1sc(C#CCn3c(=O)c4ccccc4c4ccccc43)cc1C(c1ccccc1Cl)=NC2", "IC50": 13}
{"smiles": "Cc1nnc2n1-c1sc(C#CCC34CCCc5cccc(c53)NC4=O)cc1C(c1ccccc1Cl)=NC2", "note": "(stereo not given)", "IC50": 0.7}
{"smiles": "Cc1nnc2n1-c1sc(C#CCN3C(=O)CCc4ccccc43)cc1C(c1cc([N+](=O)[O-])ccc1Cl)=NC2", "IC50": 75}
{"smiles": "Cc1nnc2nc(-c3ccccc3F)c3cc(C#CCN4C(=O)c5ccccc5C4=O)ccc3n12", "IC50": 300}
{"smiles": "Cc1nnc2n1-c1ccc(C#CCN3C(=O)CCc4ccccc43)cc1C(c1ccccc1F)=NC2", "IC50": 20}
{"smiles": "Cc1nnc2n1-c1ccc(C#CCOc3cccnc3)cc1C(c1ccccc1Cl)=NC2", "IC50": 130}
{"smiles": "Cc1nnc2n1-c1ccc(C#CCN3C(=O)CCc4ccccc43)cc1C(c1ccc(Cl)cc1)=NC2", "IC50": 100}
{"smiles": "Cc1nnc2n1-c1sc(C#CCN3C(=O)C4(C)CCCc5cccc3c54)cc1C(c1ccccc1Cl)=NC2", "note": "(stereo not given)", "IC50": 12}
{"smiles": "Cc1nnc2n1-c1ccc(I)cc1C(c1ccccc1F)=NC2", "IC50": 1000}
{"smiles": "CCc1nnc2n1-c1ccc(C#CCN3C(=O)c4ccccc4C3=O)cc1C(c1ccccc1F)=NC2", "IC50": 100}
{"smiles": "Cc1nnc2n1-c1sc(C#CCn3ccc4ccccc4c3=O)cc1C(c1ccccc1Cl)=NC2", "IC50": 1}
{"smiles": "Cc1nnc2n1-c1sc(C#CCn3cnc4ccccc43)cc1C(c1ccccc1Cl)=NC2", "IC50": 5}
{"smiles": "Cc1nnc2n1-c1sc(C#CCN3C(=O)CCc4ccccc43)cc1C(c1cc(O)ccc1Cl)=NC2", "IC50": 80}
{"smiles": "Cc1nnc2n1-c1sc(C#CCN3Cc4cccc5cccc(c45)C3=O)cc1C(c1ccccc1Cl)=NC2", "IC50": 4}
{"smiles": "Cc1nnc2n1-c1ccc(I)cc1C(c1ccccc1Cl)=NC2", "IC50": 1000}
{"smiles": "Cc1nnc2n1-c1sc(C#CCn3c(=O)ccc4ccccc43)cc1C(c1ccccc1Cl)=NC2", "IC50": 2}
{"smiles": "Cc1nnc2n1-c1sc(C#CCn3ncc4ccccc43)cc1C(c1ccccc1Cl)=NC2", "IC50": 1}
{"smiles": "Cc1nnc2n1-c1sc(C#CCn3c(=O)c4cc(Cl)ccc4c4ccc(Cl)cc43)cc1C(c1ccccc1Cl)=NC2", "IC50": 30}
{"smiles": "Cc1nnc2n1-c1sc(C#CCn3c(=O)[nH]c4ccccc43)cc1C(c1ccccc1Cl)=NC2", "IC50": 9}
{"smiles": "O=C1c2ccccc2C(=O)N1CC#Cc1ccc2c(c1)C(c1ccccc1F)=NCc1nncn1-2", "IC50": 1000}
{"smiles": "Cc1nnc2n1-c1sc(C#CCN3C(=O)CCc4cc(Cl)cc(Cl)c43)cc1C(c1ccccc1Cl)=NC2", "IC50": 9}
{"smiles": "Cc1nnc2n1-c1ccc(C#CCN3C(=O)c4ccccc4C3=O)cc1C(c1ccccc1Cl)=NC2", "IC50": 20}
{"smiles": "COc1cc2c(cc1OC)C(=O)N(CC#Cc1cc3c(s1)-n1c(C)nnc1CN=C3c1ccccc1Cl)CC2", "IC50": 25}
{"smiles": "O=C1CCc2ccccc2N1CC#Cc1ccc2c(c1)C(c1ccc(Cl)cc1)=NCc1nnc(C(F)(F)F)n1-2", "IC50": 1000}
{"smiles": "Cc1nnc2n1-c1sc(C#CCn3c(=O)n(CCN(C)C)c4ccccc43)cc1C(c1ccccc1Cl)=NC2", "IC50": 30}
{"smiles": "Cc1nnc2n1-c1sc(C#CCn3c(=O)n(CCN(C)C)c(=O)c4ccccc43)cc1C(c1ccccc1Cl)=NC2", "IC50": 150}
{"smiles": "Cc1nnc2n1-c1sc(C#CCn3c4c(c5ccccc53)CCCCC4)cc1C(c1ccccc1Cl)=NC2", "IC50": 15}
{"smiles": "Cc1nnc2n1-c1sc(C#CCN3C(=O)CC(C)(C)c4ccccc43)cc1C(c1ccccc1Cl)=NC2", "IC50": 12}
{"smiles": "Cc1nnc2n1-c1sc(I)cc1C(c1cc([N+](=O)[O-])ccc1Cl)=NC2", "IC50": 360}
{"smiles": "Cc1nnc2n1-c1sc(C#CCN3C(=O)Cn4ccc5c(Cl)ccc3c54)cc1C(c1ccccc1Cl)=NC2", "IC50": 15}
{"smiles": "Cc1nnc2n1-c1sc(C#CCN3C(=O)Cc4ccccc43)cc1C(c1ccccc1Cl)=NC2", "IC50": 3}
{"smiles": "Cc1nnc2n1-c1sc(I)cc1C(c1ccccc1Cl)=NC2C", "note": "(stereo not given)", "IC50": 120}
{"smiles": "Cc1nnc2n1-c1ccc(C#CCN3C(=O)c4ccccc4C3=O)cc1C(c1ccccc1F)NC2", "note": "(stereo not given)", "IC50": 110}
